Test results: PubChem BioAssay (NCI)
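The compound was tested at five concentrations on cells cultured in 96-well plates, with a 48-hour exposure period. TGI marks complete inhibition of growth.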

Experiments:
Experiment in all cases: inhibition of tumour cell growth, NCI panel, 48 h
SK-OV-3 ovarian = test system: SK-OV-3 ovarian
RXF 393 renal = test system: RXF 393 renal
U251 CNS = test system: U251 CNS
UACC-62 melanoma = test system: UACC-62 melanoma
HOP-18 NSCLC = test system: HOP-18 NSCLC
SK-MEL-2 melanoma = test system: SK-MEL-2 melanoma
OVCAR-5 ovarian = test system: OVCAR-5 ovarian
SW-620 colon = test system: SW-620 colon
SF-295 CNS = test system: SF-295 CNS
DLD-1 colon = test system: DLD-1 colon
SN12C renal = test system: SN12C renal
CCRF-CEM leukemia = test system: CCRF-CEM leukemia
UACC-257 melanoma = test system: UACC-257 melanoma
LOX IMVI melanoma = test system: LOX IMVI melanoma
A498 renal = test system: A498 renal
M19-MEL melanoma = test system: M19-MEL melanoma
HT29 colon = test system: HT29 colon
SNB-78 CNS = test system: SNB-78 CNS
K-562 leukemia = test system: K-562 leukemia
SF-539 CNS = test system: SF-539 CNS
LXFL 529 NSCLC = test system: LXFL 529 NSCLC
HCT-116 colon = test system: HCT-116 colon
HL-60(TB) leukemia = test system: HL-60(TB) leukemia
HCC-2998 colon = test system: HCC-2998 colon
DMS 273 small cell lung = test system: DMS 273 small cell lung
SNB-75 CNS = test system: SNB-75 CNS
CAKI-1 renal = test system: CAKI-1 renal
RXF-631 renal = test system: RXF-631 renal
KM12 colon = test system: KM12 colon
SR leukemia = test system: SR leukemia
ACHN renal = test system: ACHN renal
IGROV1 ovarian = test system: IGROV1 ovarian
EKVX NSCLC = test system: EKVX NSCLC
SNB-19 CNS = test system: SNB-19 CNS
KM20L2 colon = test system: KM20L2 colon
NCI-H226 lung = test system: NCI-H226 lung
A549 NSCLC = test system: A549 NSCLC
HOP-62 NSCLC = test system: HOP-62 NSCLC
SF-268 CNS = test system: SF-268 CNS
MALME-3M melanoma = test system: MALME-3M melanoma
RPMI-8226 leukemia = test system: RPMI-8226 leukemia
MOLT-4 leukemia = test system: MOLT-4 leukemia
OVCAR-8 ovarian = test system: OVCAR-8 ovarian
SK-MEL-5 melanoma = test system: SK-MEL-5 melanoma
M14 melanoma = test system: M14 melanoma
HOP-92 NSCLC = test system: HOP-92 NSCLC
UO-31 renal = test system: UO-31 renal
OVCAR-3 ovarian = test system: OVCAR-3 ovarian
NCI-H460 lung = test system: NCI-H460 lung
NCI-H522 lung = test system: NCI-H522 lung
NCI-H23 lung = test system: NCI-H23 lung
786-0 renal = test system: 786-0 renal
HCT-15 colon = test system: HCT-15 colon
TK-10 renal = test system: TK-10 renal
OVCAR-4 ovarian = test system: OVCAR-4 ovarian
SK-MEL-28 melanoma = test system: SK-MEL-28 melanoma
COLO 205 colon = test system: COLO 205 colon

SMILES: CCCCCCN(CCCCCC)C1=CC(=O)C(=O)c2ccccc21
- TGI (SK-OV-3 ovarian): 31.6 µM
- TGI (RXF 393 renal): 40.5 µM
- TGI (U251 CNS): 29.3 µM
- TGI (UACC-62 melanoma): 30.8 µM
- TGI (HOP-18 NSCLC): 29.7 µM
- TGI (SK-MEL-2 melanoma): 35.1 µM
- TGI (OVCAR-5 ovarian): 33.2 µM
- TGI (SW-620 colon): 27.3 µM
- TGI (SF-295 CNS): 29.1 µM
- TGI (DLD-1 colon): 32.3 µM
- TGI (SN12C renal): 30.3 µM
- TGI (CCRF-CEM leukemia): > 100 µM
- TGI (UACC-257 melanoma): 28.6 µM
- TGI (LOX IMVI melanoma): 22.1 µM
- TGI (A498 renal): 41.6 µM
- TGI (M19-MEL melanoma): 4.99 µM
- TGI (HT29 colon): 35.6 µM
- TGI (SNB-78 CNS): 51.8 µM
- TGI (K-562 leukemia): 46.4 µM
- TGI (SF-539 CNS): 30.9 µM
- TGI (LXFL 529 NSCLC): 33.4 µM
- TGI (HCT-116 colon): 32.9 µM
- TGI (HL-60(TB) leukemia): 34.6 µM
- TGI (HCC-2998 colon): 35.6 µM
- TGI (DMS 273 small cell lung): 34.7 µM
- TGI (SNB-75 CNS): 31.1 µM
- TGI (CAKI-1 renal): 28.6 µM
- TGI (RXF-631 renal): 38.3 µM
- TGI (KM12 colon): 31.5 µM
- TGI (SR leukemia): 63.3 µM
- TGI (ACHN renal): 30.9 µM
- TGI (IGROV1 ovarian): 31.1 µM
- TGI (EKVX NSCLC): 27.7 µM
- TGI (SNB-19 CNS): 29.6 µM
- TGI (KM20L2 colon): 37.6 µM
- TGI (NCI-H226 lung): 34.7 µM
- TGI (A549 NSCLC): 36.5 µM
- TGI (HOP-62 NSCLC): 32.8 µM
- TGI (SF-268 CNS): 36.6 µM
- TGI (MALME-3M melanoma): 35.8 µM
- TGI (RPMI-8226 leukemia): 60.2 µM
- TGI (MOLT-4 leukemia): 51.3 µM
- TGI (OVCAR-8 ovarian): 29.7 µM
- TGI (SK-MEL-5 melanoma): 30.9 µM
- TGI (M14 melanoma): 32.4 µM
- TGI (HOP-92 NSCLC): 28.7 µM
- TGI (UO-31 renal): 26.2 µM
- TGI (OVCAR-3 ovarian): 14 µM
- TGI (NCI-H460 lung): 33.6 µM
- TGI (NCI-H522 lung): 24.2 µM
- TGI (NCI-H23 lung): 27.8 µM
- TGI (786-0 renal): 30.3 µM
- TGI (HCT-15 colon): 34.8 µM
- TGI (TK-10 renal): 36.1 µM
- TGI (OVCAR-4 ovarian): 29.2 µM
- TGI (SK-MEL-28 melanoma): 31.8 µM
- TGI (COLO 205 colon): 31.4 µM
